Experimental data from US20230124720A1, “APPLICATION OF ACRIDINEDIONE COMPOUND IN PREPARATION OF ANTI-DIABETIC DRUGS” (THE FOURTH MILITARY MEDICAL UNIVERSITY, priority 2020, published 2023).

How the values were obtained:
STZ-induced T2DM rats [1] = experiment: Serum insulin and HOMA-IR in T2DM rats; format: in vivo, rat
Description: (§1) 150 male SD rats, housed in cages in a clean constant temperature (23±2° C.) and humidity (55±10%) animal house, were manually adjusted on a daily 12 h/12 h diurnal light cycle with free access to water. After 3 days of adaptive feeding, 150 rats were randomly divided into normal and model groups. The normal (Con, n=15) group of rats remained on raw chow and the model group (n=135) of rats were given high fat high sugar chow. All rats were fed twice daily and the amount of feed was adjusted as needed to ensure adequate feed. After 8 weeks of group feeding, the model group rats were given an intraperitoneal injection of 25 mg/kg STZ solution with a 12 h fast prior to injection. […] At the same time, the Con group was daily administrated with a 0.5% CMC-Na solution by gavage, the body weight and postprandial blood sugar (PBG) of each group of rats were monitored weekly. Relevant indicators of lipid metabolism were measured after the end of the study.
In T2DM rat serum insulin assay, fasting serum insulin levels in rats were measured by a commercial insulin ELISA kit. The extent of body insulin resistance was assessed using the Insulin Resistance Index, which was calculated using the Homeostasis model assessment (HOMA-IR) according to literature reports, i.e., HOMA-IR=(fasting glucose×fasting insulin)/22.5.

STZ-induced T2DM rats [2] = experiment: Serum lipid metabolism indicators in T2DM rats; format: in vivo, rat
Description: as §1, with “injection. After injection, feeding was continued as in the original method, blood was taken from the tail vein at 72 h for blood glucose measurement, and rats with fasting blood glucose levels ≥11.1 mmol/L on different days were screened for successful artificial induction of T2DM and administered in groups for the next experiment. 135 rats with successful modeling were randomly divided into 9 groups:” for “injection.”, “At the same time, the Con group was daily administrated with a 0.5% CMC-Na solution by gavage, the body weight and postprandial blood sugar (PBG) of each group of rats were monitored weekly.” left out

GPR40 = experiment: Insulin secretion in MIN6 cells with GPR40 inhibitor GW1100; format: cell-based, mouse; conditions: 10 μmol/L GW1100 + 10 μmol/L ADD-16, 24 h
Description: MIN6 cells were seeded in 24-well plates and cultured as described in step 2.1 to a cell confluency of more than 80% and administrated in the following groups, with 12 replicates per group: (1) normal control group (Con): cultured with blank 1640 medium; (2) GW9508 group: 1 μmol/L GW9508 intervention for 24 h; (3) GW1100 group: 10 μmol/L GW1100 intervention for 24 h; (4) ADD-16 group (ADD): 10 μmol/L ADD-16 intervention for 24 h; (5) GW1100+GW9508 group: 10 μmol/L GW1100+1 μmol/L GW9508 intervention for 24 h; (6) GW1100+ADD-16 group: 10 μmol/L GW1100+10 μmol/LADD-16 intervention for 24 h. After the group administration, the medium was aspirated and washed 2 times with a KRB buffer without sugar, followed by the addition of the KRB buffer without sugar. After incubation at 37° C. for 30 min, the buffer was aspirated and each group was divided into two, i.e., 6 replicates for each group, and KRB buffers containing 2.8 mmol/L and 16.7 mmol/L glucose was added respectively. After incubation at 37° C. for 1 h, all the medium in the wells was aspirated and centrifuged at 2000 rmp/min for 20 min, and the supernatant was collected and stored at −20° C. The insulin content was measured for each group.

Which results are given for `CC1(C)CC(=O)C2=C(C1)NC1=C(C(=O)CC(C)(C)C1)C2c1ccc(OCc2ccc(C(=O)O)cc2)c(Br)c1` [ADD-16]?
HOMA-IR (in words) (STZ-induced T2DM rats [1]): significantly reduced HOMA-IR values; serum insulin level (in words) (STZ-induced T2DM rats [1]; fasting serum): reduce compensatorily elevated insulin levels; TG, LDL and HDL levels, 10 mg/kg against 3 mg/kg (in words) (STZ-induced T2DM rats [2]; ADD V (10 mg/kg) group): significantly lower than ADD IV (3 mg/kg) group rats; serum FFA, TC, TG, LDL and HDL levels (in words) (STZ-induced T2DM rats [2]; four weeks after administration, ADD-16: ADD III-ADD VI groups (1-50 mg/kg), P<0.05): significantly decreased; insulin secretion in GW1100-treated MIN6 cells (in words) (GPR40): increase insulin secretion in MIN6 cells treated with the GPR40 inhibitor GW1100
